Assays:
[1] = tested on: Hela cells expressing HU and TMTX resistance gene; assay: Hydroxyurea and Trimetrexate cytotoxic assay: selective enrichment of transduced (GFP positive) Hela cells by FACS; format: cell-based; details: three days, FIG. 2
Procedure: Control and transduced Hela cells were incubated with HU and TMTX for 3 days, after which survival rate of both cell population were measured by FACS analysis. Hela cells were transduced with lentivector expressing GFP and the Hydroxyurea or Trimetrexate resistance genes. Three to five days after transduction, cell transduction efficiency was determined by measuring GFP fluorescence. Transduced Hela cells were treated with the appropriate concentration of cytotoxic compounds and survival rate were measured by FACS analysis. Next, the ability of either HU or TMTX to selectively enrich transduced Hela cells was evaluated by FACS. Hela cells were transduced as outlined above and then cultured in control media or media including 25 μM HU, 100 μM HU, 1 nM TMTX or 10 nM TMTX. After culture in the indicated conditions for three days, the proportion of transduced cells (GFP positive) versus non-transduced cells was determined by FACS and the results plotted.

[2] = tested on: GFP expressing blood cells; assay: In vivo selective enrichment of blood cells expressing HU resistance gene after bone marrow transplantation; parameters: species or system C57/B16 mice
Procedure: FIG. 3: In vivo selective enrichment of blood cells expressing HU and TMTX resistance gene. Bone marrow transplantation experiments were performed in C57/b16 mice. Total bone marrow was obtained from large bones of C57/B16 mice and maintained for 24 h in IMDM medium supplemented with 100 ng/ml of SCF. Bone marrow cells were then transduced with 10^9 lentivector particles for 8 hours before being injected into the tail vein of irradiated C57/B16 mice. Six to eight weeks later, blood samples were taken and GFP expression was measured by FACS. After which mice were injected intraperitoneally with either HU or TMTX with initial doses of HU of 200, 500 and 1000 mg/kg per day and initial doses of TMTX of 10, 25, 50 mg/kg with 2 injections per week. GFP expressing blood cells were measured once a week. (A) Irradiated mice, transplanted with bone marrow cells and transduced with a lentivector expressing GFP and the hydroxyurea resistance (GFP-HU).
In order to more directly assess the ability of HU and TMTX to select cells in vivo studies were undertaken in mice injected with transduced cells. […] Six to eight weeks later, blood samples were taken and GPF expression was measured by FACS. […] GFP expressing blood cells were measured once a week.

SMILES | selection of transduced cells (GFP positive versus non-transduced, FACS) ([1]; 10 nM TMTX (tested at 1 nM and 10 nM)) | selection of transduced cells (GFP positive versus non-transduced, FACS) ([1]; 25 μM HU and 100 μM HU) | transient increase in GFP-positive leukocytes ([2]; irradiated mice transplanted with bone marrow cells transduced with GFP-HU lentivector, hydroxyurea-treated, FIG. 3A) | circulating GFP positive cells ([2]; some treated animals, one week after HU injection, intraperitoneal, transient increase, FIG. 3)
COc1cc(NCc2ccc3nc(N)nc(N)c3c2C)cc(OC)c1OC [TMTX, Trimetrexate] | significant selection | – | – | –
NC(=O)NO [HU, Hydroxyurea] | – | modest selection | up to 8% | 5%-10%

Reference: patent US20160010094A1, “TRANSGENIC CELL SELECTION” (UNIVERSITE DE GENEVE, priority 2013, published 2016)
